The subject of one data set is beet armyworm. The data set can be described thus: Preliminary dose-response study on beet armyworm. The conditions noted are these: beet armyworm adults; estimated from the dose-response curve (12.5, 25, 50 and 100 ppm). Format: in vivo, Spodoptera exigua. From the text:
(§1) The sub-lethal concentrations or doses used in the various tests for the specific pest species and populations tested in the context of the present invention were estimated from multiple-rate, dose-finding tests to determine the control rates and activity break rates. […] Therefore, depending on the target pest species, either the LC50 or a suitable concentration between LC50 and LC20 was selected as the sub-lethal dose. The specific procedures used to select the respective doses are described in each Test.
Sub-lethal concentrations of Compound 1 on beet armyworm were defined based on a preliminary study using rates of 12.5, 25, 50 and 100 ppm.

Data set [1] deals with Colorado potato beetle, (Leptinotarsa decemlineata Say). As to the kind of experiment: Test E: sub-lethal treatments on adult Colorado potato beetles. Format: in vivo. The settings on record: for Total number of eggs: eggs collected daily for 20 days; for Mean number of viable larvae: larvae that developed to the pupal stage. On the procedure: For evaluating the reproductive performance effects on Colorado potato beetle, (Leptinotarsa decemlineata Say), a colony of potato beetles was cultured in the laboratory on potato plants. The pupae were provided soil material to facilitate pupation. On emergence from the soil, the adult beetles were separated into different cages to avoid initial contact between the male and female beetles. Immediately afterwards, the sex of each adult beetle was determined, and each individual insect was placed in a Petri dish and fed with pieces of excised potato leaves, before being placed in a whole plant-containing test unit for treatment with a test compound solution. Each treatment consisted of twenty adult beetles of the same age (10 males and 10 females), and a pair consisting of a male and female was considered to be a replicate; thus there were 10 replicates per treatment.
Test solutions were prepared by diluting the test compound with acetone to provide the selected sub-lethal concentrations. Treatments included Compound 1 at 6.25 and 25 ppm as well as a control without test compound.
A 15 day-old potato plant with 2 to 3 leaves in a round peat pot was infested with 10 pairs of adult beetles, and the test solution was applied at a spray pressure of 310 kPa using a moving boom tunnel sprayer equipped with one Teejet nozzle, model 8003-EVS and calibrated at speed of 1 m/s and 345 kPa to deliver about 280 L/ha. A piece of filter paper was wrapped around the plant and covered the soil, and the spray nozzle was placed 40 cm above the top of potted plant unit so that the upper surface of the leaves was the only part of the plant contacted with the spray mixture.
After 24 h, one treated male and one treated female were transferred onto a covered container containing a potato plant to allow mating to occur. The test units were held in a growth chamber provided with 16 hours of light per day, 70% relative humidity and 20° C. Daily observations were made to record oviposition data. The eggs deposited by the females were collected daily and counted for 20 days. The collected eggs were then placed in a Petri dish lined with moistened paper filter to prevent dehydration, and maintained in an incubator at 20-24° C. with 16 hours of light per day, 70% relative humidity. The number of hatched eggs and the number of viable larvae that developed to the pupal stage were also recorded. The study was discontinued after the remaining unhatched eggs succumbed to fungal infections and high humidity.

Another data set deals with cotton bollworm. The data set can be described thus: Preliminary dose-response curve on cotton bollworm. The data set is classed as in vivo, Helicoverpa armigera. The settings on record: cotton bollworm adults; preliminary dose-response curve at 10, 25, 50, 80 and 100 ppm.
From the text: as §1
(§2) Sub-lethal rates of Compound 1 on cotton bollworm were estimated based on a preliminary dose-response curve using rates of 10, 25, 50, 80 and 100 ppm. […] Three treatments consisted of test solutions containing Compound 1 at 10, 20 and 30 ppm as well as a control sprayed with water without test compound.

Data set [2] relates to cotton bollworm (Helicoverpa armigera Hübner). The data set can be described thus: Test H: eggs laid and hatched by treated cotton bollworm adults. Format: in vivo. The conditions noted are these: for No. of eggs hatched / No. of eggs laid: total; for No. of eggs hatched: counted daily for 10 DAT; for No. of eggs laid: counted daily for about 10 days.
From the text: For evaluating the reproductive performance effects on cotton bollworm (Helicoverpa armigera Hübner), each test unit consisted of one pair of adult (female and male) Helicoverpa armigera moths. To obtain the adult moths, male and female pupae of approximately the same age (±1 day) were placed in separate containers until adults emerged. After emergence, adult moths of about the same age (±1 day) were selected for testing. Ten adult moths of the same sex were placed in a cage containing a potted cotton plant in a […] container covered with sleeve of fine-mesh polyester material. Then the cages were sprayed over the top with designated treatments of the test compounds using a CO2 sprayer fitted with a flat fan nozzle, calibrated to deliver about 200 mL (500 L/ha) of spray at a spray pressure of 207 kPa. The spray nozzle was placed 60 cm above the top of the cages.
as §2
The treated adult moths were transferred individually into a clean container made of a clear plastic cup covered with cloth and supplied with a cotton wick soaked in 10% sucrose solution as adult diet source. Each treatment used 10 adult females and 10 adult males (i.e. 10 replicates per treatment). One day after treatment, a pair of treated adults (male and female) were placed together in a cage made of a 300 mL clear plastic cup with screened cloth cover and containing a source of adult diet, allowing the moths to copulate. Each pair of moths was transferred to a new cup daily. The number of eggs laid was counted daily for about 10 days (which is the period during which female moths typically produce viable eggs) and totaled. To evaluate the viability of eggs, the copulation cages containing eggs were stored in a growth chamber at 24-27° C. with 14 hours of light per day and 70% relative humidity.

What is called LC50 is the concentration that kills 50% of the test population. In the case of `CNC(=O)c1cc(Cl)cc(C)c1NC(=O)c1cc(Br)nn1-c1ncccc1Cl` [Compound 1, 3-bromo-N-[4-chloro-2-methyl-6-[(methylamino)carbonyl]phenyl]-1-(3-chloro-2-pyridinyl)-1H-pyrazole-5-carboxamide], in the data set with beet armyworm, the LC20 is on record as 12.5 ppm, the LC50 is listed as 20 ppm and the LC80 is on record as 31 ppm. Further, the “fecundity and fertility data versus control” value in data set [1] (6.25 and 25 ppm) is “not significantly different from the control”. Also, in data set [1] (6.25 ppm), the “Mean number of hatched eggs” value was determined as 188, the “Total number of eggs” value was determined as 271 and the “Mean number of viable larvae” value was 95. Besides, in data set [1] (25 ppm), the “Mean number of hatched eggs” value is recorded as 219, the “Total number of eggs” value stood at 287 and the “Mean number of viable larvae” value is given as 117. In addition, in the data set with cotton bollworm, the LC20 worked out at 18 ppm and the LC50 is 33 ppm. For the same molecule, in data set [2] (10, 20 and 30 ppm), the “number of eggs hatched as compared to controls” value is “progressively substantially decrease the number of eggs hatched” and the “number of eggs laid as compared to controls” value is reported as “did not consistently reduce the number of eggs laid”. In data set [2] (10 ppm), the “No. of eggs hatched” value is on record as 977 and the “No. of eggs laid” value was 3412. Moreover, in data set [2] (20 ppm), the “No. of eggs hatched” value was found to be 778 and the “No. of eggs laid” value is on record as 1180. Also, in data set [2] (30 ppm), the “No. of eggs hatched” value is reported as 84 and the “No. of eggs laid” value is listed as 4920.

The values above are taken from patent US20090076092A1, “METHOD FOR DISRUPTING REPRODUCTIVE PERFORMANCE OF ARTHROPODS” (priority 2006, published 2009).
